Experimental data reported in article PMC3565751, “The Feasibility of Enzyme Targeted Activation for Amino Acid/Dipeptide Monoester Prodrugs of Floxuridine; Cathepsin D as a Potential Targeted Enzym” (Molecules, 2012).

Key:
[1] = parameters: method as in PMID 18719516; settings: pH 7.4 phosphate buffer; mean ± s.d.; ref [50]; cited from earlier work
[2] = tested on: Capan-2 cell homogenates and cytosolic enzyme extracts; test: Prodrug stability in cytosolic enzyme extract versus whole cell homogenate of Capan-2 cells; format: in vitro ADME; settings: for Fold longer half life (stability improved) in cytosolic extract than in Capan-2 cell homogenate: 37 °C, pH 7.4 phosphate buffer
Method: In stability studies of test compounds in cell homogenates, the location of enzymes in living cells is not considered and the inaccessible enzymes in vivo condition may be able to degrade those analytes in this in vitro setting. Therefore, the result of prodrug stabilities in cell homogenate may be different to one in vivo, where all enzymes are arranged in all specific locations. The experiments of prodrug activation concerning the location of enzymes in cells were performed at 37 °C in Capan-2 cell homogenates and in cytosolic enzyme extracts. For the comparison purpose, the same experiments were performed at 37 °C in Caco-2 cell homogenates and in cytosolic enzyme extracts. […] The difference between them was minimal (1.4- to 2.5 fold). […] In Capan-2 cells, the stabilities of 5′-O-L-phenylalanyl-L-glycylfloxuridine and 5′-O-L-phenylalanylfloxuridine were improved 7.4- and 7.3-fold, while the ones of 5′-O-L- phenylalanyl-L-tyrosylfloxuridine and 5′-O-L-glycyl-L-leucylfloxuridine were declined 3.9- and 6.0-fold, respectively.
(§1) Preparation of Cytosolic Enzyme Extract. Confluent Caco-2 cells and Capan-2 cells (2 plates; 150 mm × 25 mm plate) were rinsed with saline twice. The cells were washed off with 1 mL of pH 7.4 phosphate buffer (10 mmol/L) and the enzymes were extracted through 30 gauge needle 10 times in ice-cold bath. Cell suspension was spun at 10,000 × g for 2 h at 4 °C and the supernatant was spun at 39,000 × g for 2 h at 4 °C. Protein amount was quantified with the Bio-Rad (Hercules, CA, USA) DC Protein Assay using bovine serum albumin as a standard. The protein amount was adjusted to 500 µg/mL and the hydrolysis reactions were carried out in 96-well plates (Corning). Caco-2 cells and Capan-2 cell suspensions (250 µL) were placed in triplicate wells either presence or absence of various inhibitors, the reactions were started with the addition of substrate (200 µM), and wells were incubated at 37 °C for 120 min (time points; 0, 5, 10, 30, 60, and 120 min). At each time point, aliquot sample (35 µL) was removed and added to 150 µL of acetonitrile (ACN) with 0.1% TFA to prevent the further degradation. The mixtures were filtered with a 0.45 µm filters at 1,000 × g for 10 min at 4 °C. The filtrate wasthen analyzed via reverse-phaseHPLC.
(§2) The initial rates of hydrolysis were used to obtain the apparent first-order rate constants and estimate the half-lives. The apparent first-order degradation rate constants of various floxuridine prodrugs at 37 °C were determined by plotting the logarithm of prodrug remaining as a function of time. The slopes of these plots are related to the rate constant, k, and given by:
(§3) The concentrations of prodrugs and their metabolites were determined on a Waters HPLC system (Waters, Inc., Milford, MA, USA). The HPLC system consisted of two Waters pumps (model 515), a Waters autosampler (WISP model 712), and a Waters UV detector (996 photodiode array detector). The system was controlled by Waters Millennium 32 software (version 3.0.1). Samples were injected onto a Waters Xterra C18 reverse-phase column (5 µm, 4.6 × 250 mm) equipped with a guard column. The compounds were eluted using gradient method. All prodrugs were run with the solvent B gradient changing 0% to 56% at a rate of 2%/min during a 28-min run. Standard curves generated for each prodrug and their parent drugs were used for quantitation of integrated area under peaks.

[3] = tested on: Capan-2 cell homogenate; test: Prodrug hydrolysis in Capan-2 cell homogenate with the presence and the absence of selective enzyme inhibitors; format: in vitro ADME; settings: 37 °C; for Half Life, DPP 3 Inhibitor: Capan-2 cell homogenate with 1,10-phenanthroline; for Half Life, DPP 3 Inhibitor / Half Life, TPP 2 Inhibitor / Half Life, Cathepsin D Inhibitor / Half Life, Aminopeptidase Inhibitor: pH 7.4; for Half Life, TPP 2 Inhibitor: Capan-2 cell homogenate with H-Ala-Ala-Phe-CMK CF3CO2H; for Half Life, Cathepsin D Inhibitor: Capan-2 cell homogenate with pepstatin A; for Half Life, Aminopeptidase Inhibitor: Capan-2 cell homogenate with puromycin; for Half Life, Capan-2 Cell Homogenate: no inhibitor, pH 7.4 phosphate buffer, 200 µM substrate, mean ± s.d.
Method: Hydrolysis StudiesPreparation of Capan-2 cell homogenates. Preparation of cell homogenates has been reported previously. Confluent Capan-2 cells (2 plates; 150 mm × 25 mm plate) were rinsed with saline twice. The cells were washed off with 5 mL of pH 7.4 phosphate buffer (10 mmol/L) and the lysed cells by ultrasonication (Micro ultrasonic cell disrupter Model KT40, Kontes, Vineland, NJ, USA) were spun down by centrifugation.
as §1, §2
k = 2.303 × slope (log C vs. time) (1)
The degradation half-lives were then estimated by the equation: […]
as §3

[4] = tested on: Capan-2 cell lines; test: Cell proliferation (XTT) assay; format: cell-based; settings: 4 mmol/L, 4 h drug treatment
Method: The percentage of growth inhibition for amino acid/dipeptide monoester prodrugs of floxuridine in Capan-2 cell was evaluated via 2,3-bis[2-methoxy-4-nitro-5-sulfophenyl]-2H-tetrazolium-5-carboxanilideinner salt (XTT) assays (Figure 3). The growth inhibitory effect of tested floxuridine prodrugs after 4 h drug treatment range from 0.0–91.1% at 4 h, 0.0–84.2% at 8 h, and 41.8–84.8% at 24 h in Capan-2 cell lines. […] While specific activation enzymes for 5′-O-L-leucyl-L-glycylfloxuridine and 5′-O-L-phenylalanylfloxuridine have not been identified, those enzymes may be highly localized at the plasma membrane and cytosol. Thus, the activation of those prodrugs took place immediately after translocation of prodrugs into the cells and started inhibiting tumor growth. Leucine and phenylalanine are reportedly good substrates for aminopeptidases and carboxylesterase, respectively.
Cell proliferation studies were conducted with Capan-2 cell lines. The cells were seeded into 96-well plates at […] per well and allowed to attach/grow for 24 h before drug solutions were added. The culture medium (RPMI-1640 + 10% fetal bovine serum) was removed and the cells were gently washed once with sterile pH 6.0 uptake buffer (145 mM NaCl, 0.5 mM MgCl2, 1 mM NaH2PO4, 1 mM CaCl2, 3 mM KCl, 5 mM glucose, and 5 mM MES). Floxuridine prodrugs and floxuridine were diluted in pH 6.0 uptake buffer to 4 mmol/L using no drug as a 100% viability control. The wash buffer was removed and 25 µL drug solution per well were added and incubated at 37 °C for 4 h in the cell incubator. After this time, the drug solutions were removed and the cells were again gently washed twice with sterile uptake buffer. RPMI-1640 was then added to each well after washing. The cells were allowed to recover for 4 h, 8 h, or 24 h before evaluating cell viability via 2,3-bis[2-methoxy-4-nitro-5-sulfophenyl]-2H-tetrazolium-5-carboxanilide inner salt (XTT) assays. […] Absorbance readings at 450 nm were recorded.

[5] = target: T1, human cathepsin D (Homo sapiens, UniProt P07339); test: Prodrug stability with human cathepsin D; format: biochemical; settings: pH 7.4 phosphate buffer, 37 °C, 200 µM substrate
T1 construct: cathepsin B (human liver), and cathepsin D (human liver) were obtained from Sigma Chemical Co; purchased Sigma Chemical Co (St. Louis, MO, USA); host or cells: human liver (tissue-derived)
Excerpt: (§4) The high expression levels of cathepsins in tumors have been reported. It has been investigated if the protein levels of cathepsin B and D would associate with pathological parameters in order to assess the difference in protein levels of cathepsins as possible tumor biomarkers. Cathepsin B, one of the highest gene expressions in enzymes of Capan-2 cell, is a cysteine endopeptidase and reportedly has similar activity to carboxypeptidase and peptidyl-dipeptidase. On the other hand, cathepsin D has been reported that it preferentially hydrolyzes the peptide bond of bulky hydrophobic amino acids and the peptide bond between Phe-Phe of Bz-Arg-Gly-Phe-Phe-Pro-4MbNA [75, 76, 77]. The metabolic stability of floxuridine prodrugs was assessed using human cathepsin B and D in pH 7.4 phosphate buffer. […] However, the enzyme specificity between cathepsin B and D in prodrug activation for those two prodrugs was not observed.
(§5) Prodrug stability with Cathepsin B and D. Lyophilized enzyme powder was dissolved and adjusted to 2.5 mg/mL of pure enzyme, human cathepsin B and D. The hydrolysis reactions were immediately started by adding substrates (200 µM) in 96-well plates (Corning). The reactions were carried out at 37 °C for 120 min (time points; 0, 5, 10, 30, 60, and 120 min). At each time point, aliquot sample (35 µL) was removed and added to 150 µL of acetonitrile (ACN) with 0.1% TFA. The mixtures were filtered with a 0.45 µm filters at 1,000 × g for 10 min at 4 °C. The filtrate was then analyzed via reverse-phase HPLC.
(§6) The initial rates of hydrolysis were used to obtain the apparent first-order rate constants and estimate the half-lives. The apparent first-order degradation rate constants of various floxuridine prodrugs at 37 °C were determined by plotting the logarithm of prodrug remaining as a function of time. […]
(§7) The concentrations of prodrugs and their metabolites were determined on a Waters HPLC system (Waters, Inc., Milford, MA, USA). […] Standard curves generated for each prodrug and their parent drugs were used for quantitation of integrated area under peaks.

[6] = target: T2, human cathepsin B (Homo sapiens, UniProt P07858); test: Prodrug stability with human cathepsin B; format: biochemical; settings: pH 7.4 phosphate buffer, 37 °C, 200 µM substrate
T2 construct: cathepsin B (human liver), and cathepsin D (human liver) were obtained from Sigma Chemical Co; purchased Sigma Chemical Co (St. Louis, MO, USA); host or cells: human liver (tissue-derived)
Excerpt: as §4, §5, §6, §7

T1 sequence (P07339 169-412 limits assumed): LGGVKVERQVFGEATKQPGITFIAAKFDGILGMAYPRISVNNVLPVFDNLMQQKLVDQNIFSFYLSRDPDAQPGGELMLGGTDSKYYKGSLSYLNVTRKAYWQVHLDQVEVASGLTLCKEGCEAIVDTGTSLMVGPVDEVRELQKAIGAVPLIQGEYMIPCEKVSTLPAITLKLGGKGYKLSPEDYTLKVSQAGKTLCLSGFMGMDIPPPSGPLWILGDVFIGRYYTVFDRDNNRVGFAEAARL
T1 sequence (P07339 65-162 limits assumed): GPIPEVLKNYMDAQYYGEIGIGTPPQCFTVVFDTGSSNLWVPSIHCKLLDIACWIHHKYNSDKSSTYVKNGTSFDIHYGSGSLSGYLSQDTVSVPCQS

| Structure (SMILES) | Half Life, Phosphate Buffer pH 7.4 [1] [min] | Hydrolysis products detected in cell homogenates and cytosolic enzyme extracts [2] | Fold longer half life (stability improved) in cytosolic extract than in Capan-2 cell homogenate [2] [fold] | Half Life, DPP 3 Inhibitor [3] [min] | Half Life, TPP 2 Inhibitor [3] [min] | Half Life, Cathepsin D Inhibitor [3] [min] | Half Life, Aminopeptidase Inhibitor [3] [min] | Half Life, Capan-2 Cell Homogenate [3] [min] | Growth inhibition of cancer cells at 4 h and 8 h [4] | Stability (degradation) against cathepsin D compared with absence of enzyme [5] | Stability (degradation) against cathepsin B compared with absence of enzyme [6] | Onset of growth inhibition of tumor cells [4] |
| --- | --- | --- | --- | --- | --- | --- | --- | --- | --- | --- | --- | --- |
| N[C@@H](Cc1ccccc1)C(=O)NCC(=O)OC[C@H]1O[C@@H](n2cc(F)c(=O)[nH]c2=O)C[C@@H]1O [5'-O-L-phenylalanyl-L-glycyl-floxuridine] | 132.1 ± 10.2 | only floxuridine was detected | 7.4 | 30.1 ± 10.0 | 19.6 ± 0.4 | 10.2 ± 3.0 | 25.7 ± 0.4 | 4.3 ± 0.9 | did not exhibit the growth inhibition of cancer cells | significant degradation | significant degradation |  |
| N[C@@H](Cc1ccccc1)C(=O)OC[C@H]1O[C@@H](n2cc(F)c(=O)[nH]c2=O)C[C@@H]1O [5'-O-L-phenylalanylfloxuridine] | 187.0 ± 19.0 | only floxuridine was detected | 7.3 | 28.9 ± 10.7 | 15.3 ± 0.6 | 60.6 ± 4.6 | 48.7 ± 0.37 | 3.0 ± 0.1 |  |  |  | immediately inhibited the growth of tumor cells |
